Target: T1, IGF-1R (Homo sapiens, UniProt P08069)
T1 construct: expressed in transfected cells; host or cells: Hek293 (Hek293-IGF1R)
Assay: Cellular IGF-1R assay: capture ELISA (MSD) of receptor phosphorylation in Hek293 cells
Format: cell-based
Conditions: Hek293-IGF1R cells, 1 h pre-incubation, 10 min IGF stimulation, pIGF1R capture ELISA
Experimental: (§1) In this assay the activity of the compounds of the invention against Insulin-like growth factor I (IGF-I) induced autophosphorylation of the IGF-IR was determined. The assay was conducted as follows: Compound-mediated inhibition of IGF1R and INSR phosphorylation in Hek293 cells transduced with the corresponding receptors was assessed in a capture ELISA format using the MSD (Meso Scale Discovery) platform. Briefly, 30,000 cells washed and diluted in starvation medium (DMEM high glucose supplemented with 0.1% BSA) were seeded in 90 μL per well into 96-well plates pre-coated with poly-D-lysine (0.1 mg/mL in PBS/O). After 24 h incubation at 37° C. and 5% CO2, dose-response effects were determined with 3-fold serial compound dilutions, starting at 10 μM. The final vehicle concentration is 0.1% DMSO in all wells. Following pre-incubation with compounds for 1 h, receptor phosphorylation was triggered by a 10 min exposure to 1.0 ng/μL IGF for Hek293-IGF1R cells, and 5.0 ng/μL insulin for Hek293-InsR cells. Cell lysis was achieved by addition of 80 μL MSD lysis buffer per aspirated well, incubation on ice for 20 min, and a freeze-thaw cycle. Target phosphorylation was then assessed by transferring volumes corresponding to approx. 6 μg Hek293-IGF1R or 0.6 μg Hek293-InsR lysates to MSD assay plates pre-coated with total-IGF1R or total-InsR Abs, respectively. […] Immune complexes were detected by a SULFO-Tag™-coupled anti-rabbit IgG antibody in the presence of 150 μL MSD read-buffer. Light emission at 620 nm triggered by application of electric current was recorded on a MSD Sectorlmager 6000. Acquired raw data (mean Ru-ECL units) were processed in an Excel analysis template. The plate blank (MSD lysis buffer) was subtracted from all data points. The effect of a particular test compound concentration on receptor phosphorylation was expressed relative to the window defined by ligand-stimulated vs unstimulated control cells (set as 100%). IC50 values [nM] were determined using 4-parametric curve-fitting (XLfit software, V4.3.2).
as §1, with “Compound-mediated” for “In this assay the activity of the compounds of the invention against Insulin-like growth factor I (IGF-I) induced autophosphorylation of the IGF-IR was determined. The assay was conducted as follows: Compound-mediated”, “cells trans-duced” for “cells transduced”, “receptors were” for “receptors was”, “concentration was” for “concentration is”, “for Hek293-IGF1 R” for “for Hek293-IGF1R”, “with total-IGF1 R” for “with total-IGF1R”

T1 sequence (P08069 31-1367): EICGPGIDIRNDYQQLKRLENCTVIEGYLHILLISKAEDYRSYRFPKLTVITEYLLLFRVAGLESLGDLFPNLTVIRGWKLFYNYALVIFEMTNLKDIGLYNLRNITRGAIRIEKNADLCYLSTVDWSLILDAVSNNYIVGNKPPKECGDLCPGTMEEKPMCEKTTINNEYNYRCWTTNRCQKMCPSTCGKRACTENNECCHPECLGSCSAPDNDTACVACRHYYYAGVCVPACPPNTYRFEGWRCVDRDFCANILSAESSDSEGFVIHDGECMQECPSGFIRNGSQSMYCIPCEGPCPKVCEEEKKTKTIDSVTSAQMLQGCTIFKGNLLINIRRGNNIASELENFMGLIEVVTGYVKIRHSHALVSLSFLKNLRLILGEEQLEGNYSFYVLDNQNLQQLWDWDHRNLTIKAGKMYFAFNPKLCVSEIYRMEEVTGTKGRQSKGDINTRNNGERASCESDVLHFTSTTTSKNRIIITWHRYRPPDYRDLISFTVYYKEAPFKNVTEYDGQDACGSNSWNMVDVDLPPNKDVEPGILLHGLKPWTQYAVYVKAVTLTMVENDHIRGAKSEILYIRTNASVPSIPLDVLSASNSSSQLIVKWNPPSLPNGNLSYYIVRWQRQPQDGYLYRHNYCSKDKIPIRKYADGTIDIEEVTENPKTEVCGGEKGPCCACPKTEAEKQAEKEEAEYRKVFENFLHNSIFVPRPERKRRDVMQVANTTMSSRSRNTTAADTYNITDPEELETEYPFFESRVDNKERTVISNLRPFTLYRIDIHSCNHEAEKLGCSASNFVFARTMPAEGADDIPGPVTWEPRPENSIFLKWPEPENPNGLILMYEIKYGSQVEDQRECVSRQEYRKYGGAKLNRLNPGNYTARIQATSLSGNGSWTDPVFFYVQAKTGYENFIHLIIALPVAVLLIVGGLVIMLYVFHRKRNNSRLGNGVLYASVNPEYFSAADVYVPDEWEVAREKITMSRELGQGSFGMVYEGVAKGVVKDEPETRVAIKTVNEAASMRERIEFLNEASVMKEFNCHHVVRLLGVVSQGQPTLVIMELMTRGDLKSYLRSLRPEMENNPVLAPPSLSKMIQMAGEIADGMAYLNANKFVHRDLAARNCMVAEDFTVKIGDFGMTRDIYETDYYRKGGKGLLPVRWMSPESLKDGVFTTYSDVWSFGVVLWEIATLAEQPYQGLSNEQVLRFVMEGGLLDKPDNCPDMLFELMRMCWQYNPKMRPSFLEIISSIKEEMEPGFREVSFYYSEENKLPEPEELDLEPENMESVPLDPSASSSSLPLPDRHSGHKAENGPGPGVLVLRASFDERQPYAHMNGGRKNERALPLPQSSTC

Q: How did the IC50 turn out when `CSC[C@H]1C[C@@H](n2cc(-c3cccc(OCC4CCCCO4)c3)c3c(N)ncnc32)C1` (relative stereo) [Example 85, 7-(cis-3-methylsulfanylmethyl-cyclobutyl)-5-[3-(tetrahydro-pyran-2-ylmethoxy)-phenyl]-7H-pyrrolo[2,3-d]pyrimidin-4-ylamine] was run?
A: 557 nM

Q: Which IC50 does the source give for `Nc1ncnc2c1c(-c1cccc(OCC3CCCO3)c1)cn2[C@H]1C[C@@H](CN2CCS(=O)(=O)CC2)C1` (relative stereo) [Example 88, 7-[cis-3-(1,1-Dioxothiomorpholin-4-ylmethyl)-cyclobutyl]-5-[3-(tetrahydro-furan-2-ylmethoxy)-phenyl]-7H-pyrrolo[2,3-d]pyrimidin-4-ylamine] here?
A: 234 nM

Q: For `Nc1ncnc2c1c(-c1cccc(OCC3CCCO3)c1)cn2[C@H]1C[C@H](CN2CCS(=O)(=O)CC2)C1` (relative stereo) [Example 89, 7-[trans-3-(1,1-Dioxothiomorpholin-4-ylmethyl)-cyclobutyl]-5-[3-(tetrahydro-furan-2-ylmethoxy)-phenyl]-7H-pyrrolo[2,3-d]pyrimidin-4-ylamine], which IC50 is on record?
A: 316 nM

Q: `NC(=O)[C@@H]1[C@H](O)CCN1C[C@H]1C[C@H](n2cc(-c3cccc(OCC4CCCO4)c3)c3c(N)ncnc32)C1` (relative stereo) [Example 91, (2S,3R)-1(trans-((1R,3S)-3-(4-amino-5-(3-(tetrahydrofuran-2-yl)methoxy)phenyl)-7H-pyrrolo[2,3-d]pyrimidin-7-yl)cyclobutyl)methyl-3-hydroxylpyrrolidine-2-carboxamide] was tested. Which IC50 did it give?
A: 108 nM

Q: With `Nc1ncnc2c1c(-c1cccc(OCC3CCCCO3)c1)cn2[C@H]1C[C@@H](CN2CCCC2C(=O)O)C1` (relative stereo) [Example 92, 1-(cis-3-{4-amino-5-[3-(tetrahydro-pyran-2-ylmethoxy)-phenyl]-pyrrolo[2,3-d]pyrimidin-7-yl}-cyclobutylmethyl)-pyrrolidine-2-carboxylic acid] as the compound, how does the IC50 read?
A: 559 nM

Q: With `CSC[C@H]1C[C@@H](n2cc(-c3cccc(OC[C@H]4CCCCO4)c3)c3c(N)ncnc32)C1` (relative stereo) [Example 152, 7-(cis-3-methylsuphanylmethyl-cyclobutyl)-5-{3-[(R)-1-(tetrahydro-pyran-2-yl)methoxy]-phenyl}-7H-pyrrolo[2,3-d]pyrimidin-4-ylamine] as the compound, how does the IC50 read?
A: 281 nM

Q: Which IC50 does the source give for `Cc1nccn1C[C@H]1C[C@@H](n2cc(-c3cccc(OCC4CCCCO4)c3)c3c(N)ncnc32)C1` (relative stereo) [Example 154, 7-[cis-3-(2-methyl-imidazol-1-ylmethyl)-cyclobutyl]-5-[3-(tetrahydro-pyran-2-ylmethoxy)-phenyl]-7H-pyrrolo[2,3-d]pyrimidin-4-ylamine] here?
A: 71 nM

Q: How did the IC50 turn out when `CC12CCC(COc3cccc(-c4cn([C@H]5C[C@@H](CN6CCS(=O)(=O)CC6)C5)c5ncnc(N)c45)c3)(CC1)O2` (relative stereo) [Example 155, 7-[cis-3-(1,1-dioxo-1-thiomorpholin-4-ylmethyl)-cyclobutyl]-5-[3-(4-methyl-7-oxa-bicyclo[2.2.1]hept-1-ylmethoxy)-phenyl]-7H-pyrrolo[2,3-d]pyrimidin-4-ylamine] was run?
A: 24 to 54 nM

Q: For `Cc1nccn1C[C@H]1C[C@@H](n2cc(-c3cccc(OCC45CCC(C)(CC4)O5)c3)c3c(N)ncnc32)C1` (relative stereo) [Example 157, 7-[cis-3-(2-methyl-imidazol-1-ylmethyl)-cyclobutyl]-5-[3-(4-methyl-7-oxa-bicyclo[2.2.1]hept-1-ylmethoxy)-phenyl]-7H-pyrrolo[2,3-d]pyrimidin-4-ylamine], which IC50 is on record?
A: 106 to 448 nM

Q: Which IC50 does the source give for `NC[C@H]1C[C@@H](n2cc(-c3cccc(OCC45CCC(CC4)O5)c3)c3c(N)ncnc32)C1` (relative stereo) [Example 160, 7-[cis-3-aminomethyl-cyclobutyl]-5-[3-(7-oxa-bicyclo[2.2.1]hept-1-ylmethoxy)-phenyl]-7H-pyrrolo[2,3-d]pyrimidin-4-ylamine] here?
A: 24 nM

Q: With `CS(=O)(=O)N1CCN([C@H]2C[C@@H](n3cc(-c4cccc(OCC56CCC(CC5)O6)c4)c4c(N)ncnc43)C2)CC1` (relative stereo) [Example 171, 7-[cis-3-(4-methanesulfonyl-piperazin-1-yl)-cyclobutyl]-5-[3-(7-oxa-bicyclo[2.2.1]hept-1-ylmethoxy)-phenyl]-7H-pyrrolo[2,3-d]pyrimidin-4-ylamine] as the compound, how does the IC50 read?
A: 33 nM

Q: `Nc1ncnc2c1c(-c1cccc(OCC34CCC(CC3)O4)c1)cn2[C@H]1C[C@@H](N2CCN(CCO)CC2)C1` (relative stereo) [Example 172, 2-[4-(cis-3-{4-amino-5-[3-(7-oxa-bicyclo[2.2.1]hept-1-ylmethoxy)-phenyl]-pyrrolo[2,3-d]pyrimidin-7-yl}-cyclobutyl)-piperazin-1-yl]-ethanol] was tested. Which IC50 did it give?
A: 21 nM

Q: For `CC(=O)N1CC2CC1CN2[C@H]1C[C@@H](n2cc(-c3cccc(OCC45CCC(CC4)O5)c3)c3c(N)ncnc32)C1` (relative stereo) [Example 173, 1-[5-(cis-3-{4-amino-5-[3-(7-oxa-bicyclo[2.2.1]hept-1-ylmethoxy)-phenyl]-pyrrolo[2,3-d]pyrimidin-7-yl}-cyclobutyl)-2,5-diaza-bicyclo[2.2.1]hept-2-yl]-ethanone], which IC50 is on record?
A: 182 nM

Q: With `Nc1ncnc2c1c(-c1cccc(OCC34CCC(CC3)O4)c1)cn2[C@H]1C[C@@H](N2CC3CC2CN3CCO)C1` (relative stereo) [Example 174, 2-[5-(cis-3-{4-amino-5-[3-(7-oxa-bicyclo[2.2.1]hept-1-ylmethoxy)-phenyl]-pyrrolo[2,3-d]pyrimidin-7-yl}cyclobutyl)-2,5-diaza-bicyclo[2.2.1]hept-2-yl]-ethanol] as the compound, how does the IC50 read?
A: 303 nM

Q: For `Nc1ncnc2c1c(-c1cccc(OCC34CCC(CC3)O4)c1)cn2[C@H]1CC[C@H](N)CC1` (relative stereo) [Example 182, 7-(trans-4-Amino-cyclohexyl)-5-[3-(7-oxa-bicyclo[2.2.1]hept-1-ylmethoxy)-phenyl]-7H-pyrrolo[2,3-d]pyrimidin-4-ylamine], which IC50 is on record?
A: 211 nM

Q: `CN(C)[C@H]1CC[C@H](n2cc(-c3cccc(OCC45CCC(CC4)O5)c3)c3c(N)ncnc32)CC1` (relative stereo) [Example 183, 7-(trans-4-Dimethylamino-cyclohexyl)-5-[3-(7-oxa-bicyclo[2.2.1]hept-1-ylmethoxy)-phenyl]-7H-pyrrolo[2,3-d]pyrimidin-4-ylamine] was tested. Which IC50 did it give?
A: 88 nM

Q: Which IC50 does the source give for `Nc1ncnc2c1c(-c1cccc(OCC34CCC(CC3)O4)c1)cn2[C@H]1C[C@@H](CN2CCC(O)CC2)C1` (relative stereo) [Example 184, 1-(cis-3-{4-Amino-5-[3-(7-oxa-bicyclo[2.2.1]hept-1-ylmethoxy)-phenyl]-pyrrolo[2,3-d]pyrimidin-7-yl}-cyclobutylmethyl)-piperidin-4-ol] here?
A: 9 nM

Q: `Nc1ncnc2c1c(-c1cccc(OCC34CCC(CC3)O4)c1)cn2[C@H]1C[C@@H](N2CC(O)C2)C1` (relative stereo) [Example 191, 1-(cis-3-{4-Amino-5-[3-(7-oxa-bicyclo[2.2.1]hept-1-ylmethoxy)-phenyl]-pyrrolo[2,3-d]pyrimidin-7-yl}-cyclobutyl)-azetidin-3-ol] was tested. Which IC50 did it give?
A: 138 nM

Q: How did the IC50 turn out when `CC(=O)NN[C@H]1C[C@@H](n2cc(-c3cccc(OCC45CCC(CC4)O5)c3)c3c(N)ncnc32)C1` (relative stereo) [Example 193, Acetic acid N′-(cis-3-{4-amino-5-[3-(7-oxa-bicyclo[2.2.1]hept-1-ylmethoxy)-phenyl]-pyrrolo[2,3-d]pyrimidin-7-yl}-cyclobutyl)-hydrazide] was run?
A: 112 nM
